Measurements published in patent US7745483B2, “2-Halofuryl-thienyl-3-carboxamides” (Bayer CropScience AG, priority 2004, dated 2010).

Assays:
[1] = logP determination by HPLC on a reverse-phase column (EEC Directive 79/831 Annex V.A8); type: physicochemical; settings: pH 2.3, reverse-phase column (C 18), 43° C.; for chromatographic logP: reverse-phase HPLC column (C 18)
Protocol: The logP values given were determined in accordance with EEC Directive 79/831 Annex V.A8 by HPLC (High Performance Liquid Chromatography) on a reverse-phase column (C 18). Temperature: 43° C. Mobile phases for the determination in the acidic range (pH 2.3): 0.1% aqueous phosphoric acid, acetonitrile; linear gradient from 10% acetonitrile to 90% acetonitrile. Calibration was carried out using unbranched alkan-2-ones (having 3 to 16 carbon atoms) with known logP values (determination of logP values by retention times using linear interpolation between two successive alkanones).

Botrytis cinerea = experiment: Botrytis test (bean)/protective; type: in vivo; settings: 48 h, protective, application rate 500 g/ha, evaluation 2 days after inoculation, read-out: Efficacy in %
Protocol: [table] To produce a suitable preparation of active compound, 1 part by weight of active compound was mixed with the stated amounts of solvent and emulsifier, and the concentrate was diluted with water to the desired concentration. To test for protective activity, young plants are sprayed with the preparation of active compound at the stated application rate. After the spray coating has dried on, 2 small pieces of agar colonized by Botrytis cinerea are placed onto each leaf. The inoculated plants are placed in a dark chamber at about 20° C. and 100% relative atmospheric humidity. The size of the infected areas on the leaves is evaluated 2 days after the inoculation. 0% means an efficacy which corresponds to that of the control, whereas an efficacy of 100% means that no infection is observed.

Cc1ccc(-c2ccccc2NC(=O)c2ccsc2I)cc1F [Example 25]
logP [1]: 3.89

CC(C)(C)CCc1cc(F)ccc1NC(=O)c1ccsc1Br [Example 44]
logP [1]: 4.30

O=C(Nc1ccccc1-c1ccc(Cl)c(Cl)c1)c1ccoc1I [Example 10]
logP [1]: 3.89

O=C(Nc1ccccc1-c1ccc(Cl)c(Cl)c1)c1ccsc1Br [Example 30]
logP [1]: 4.25

O=C(Nc1ccccc1-c1ccc(F)c(Cl)c1)c1ccsc1I [Example 38]
logP [1]: 3.79

O=C(Nc1ccccc1-c1ccc(Cl)c(Cl)c1)c1ccsc1I [Example 13]
logP [1]: 4.11

O=C(Nc1ccncc1-c1ccc(Cl)c(Cl)c1)c1ccsc1I [drawing 228]
pest or weed control at 500 g/ha (Botrytis cinerea): 100%

CC(C)CC(C)c1ccccc1NC(=O)c1ccsc1I (stereo not shown) [Example 1, N-[2-(1,3-dimethylbutyl)phenyl]-2-iodothiophene-3-carboxamide]
chromatographic logP [1]: 4.14

CC(C[Si](C)(C)C)c1ccccc1NC(=O)c1ccoc1I (stereo not shown) [drawing 244]
pest or weed control at 500 g/ha (Botrytis cinerea): 100%

O=C(Nc1ccccc1-c1ccc(Cl)cc1)c1ccsc1Br [Example 29]
logP [1]: 3.99

CC(CC(C)(C)C)c1ccccc1NC(=O)c1ccsc1Br (stereo not shown) [Example 28]
logP [1]: 4.51

O=C(Nc1ccccc1-c1ccc(Br)c(Cl)c1)c1ccsc1I [Example 32]
logP [1]: 4.21

O=C(Nc1ccccc1-c1ccc(C(F)(F)F)cc1Cl)c1ccsc1I [drawing 227]
pest or weed control at 500 g/ha (Botrytis cinerea): 100%

C=C(CC(C)(C)C)c1ccccc1NC(=O)c1ccsc1I [Example 14]
logP [1]: 4.78

O=C(Nc1ccccc1-c1ccc(Br)cc1Cl)c1ccsc1I [Example 21]
logP [1]: 4.28

O=C(Nc1ccccc1-c1ccc(Br)cc1Cl)c1ccsc1I [drawing 229]
pest or weed control at 500 g/ha (Botrytis cinerea): 100%

CC(CC(C)(C)C)c1ccccc1NC(=O)c1ccsc1Br (stereo not shown) [drawing 254]
pest or weed control at 500 g/ha (Botrytis cinerea): 100%

O=C(Nc1ccccc1-c1ccc(Cl)c(Cl)c1)c1ccoc1I [drawing 238]
pest or weed control at 500 g/ha (Botrytis cinerea): 100%

CC(C)CC(C)c1ccccc1NC(=O)c1ccsc1I (stereo not shown) [drawing 222]
pest or weed control at 500 g/ha (Botrytis cinerea): 100%

C[Si](C)(C)CCc1ccccc1NC(=O)c1ccsc1I [drawing 226]
pest or weed control at 500 g/ha (Botrytis cinerea): 100%

O=C(Nc1ccc(F)cc1-c1ccc(Cl)c(Cl)c1)c1ccsc1I [Example 24]
logP [1]: 4.13

CC(C[Si](C)(C)C)c1ccccc1NC(=O)c1ccsc1I (stereo not shown) [Example 17]
logP [1]: 4.69

O=C(Nc1ccccc1-c1ccc(Cl)cc1)c1ccsc1I [drawing 240]
pest or weed control at 500 g/ha (Botrytis cinerea): 100%

O=C(Nc1ccccc1-c1ccc(Br)cc1)c1ccoc1I [drawing 237]
pest or weed control at 500 g/ha (Botrytis cinerea): 100%

CC(C)CC(C)c1cc(F)ccc1NC(=O)c1ccsc1I (stereo not shown) [drawing 250]
pest or weed control at 500 g/ha (Botrytis cinerea): 100%

O=C(Nc1ccccc1-c1ccc(Cl)c(F)c1)c1ccsc1Br [Example 31]
logP [1]: 3.91

CC1CC(C)(C)c2cccc(NC(=O)c3ccsc3I)c21 (stereo not shown) [drawing 249]
pest or weed control at 500 g/ha (Botrytis cinerea): 100%

CC(C)CC(C)c1cc(F)ccc1NC(=O)c1ccsc1I (stereo not shown) [Example 41]
logP [1]: 4.17

O=C(Nc1ccccc1-c1ccc(Br)cc1)c1ccsc1I [drawing 241]
pest or weed control at 500 g/ha (Botrytis cinerea): 100%

O=C(Nc1ccccc1-c1ccc(Cl)cc1)c1ccsc1Br [drawing 255]
pest or weed control at 500 g/ha (Botrytis cinerea): 100%

O=C(Nc1ccccc1-c1ccc(Cl)c(F)c1)c1ccsc1I [drawing 243]
pest or weed control at 500 g/ha (Botrytis cinerea): 100%

CC(C[Si](C)(C)C)c1ccccc1NC(=O)c1ccsc1I (stereo not shown) [drawing 245]
pest or weed control at 500 g/ha (Botrytis cinerea): 100%

CC(C)CC(C)c1sccc1NC(=O)c1ccsc1I (stereo not shown) [drawing 252]
pest or weed control at 500 g/ha (Botrytis cinerea): 100%

O=C(Nc1ccccc1-c1ccc(Cl)cc1)c1ccsc1I [Example 8]
logP [1]: 3.93

CC1CC(C)(C)c2cccc(NC(=O)c3ccsc3I)c21 (stereo not shown) [Example 39]
logP [1]: 4.09

O=C(Nc1ccncc1-c1ccc(Cl)c(Cl)c1)c1ccsc1I [Example 34]
logP [1]: 2.20

O=C(Nc1ccccc1-c1ccc(C(F)(F)F)cc1)c1ccsc1I [drawing 246]
pest or weed control at 500 g/ha (Botrytis cinerea): 100%

O=C(Nc1ccccc1-c1ccc(F)c(Cl)c1)c1ccsc1I [drawing 258]
pest or weed control at 500 g/ha (Botrytis cinerea): 99%

O=C(Nc1ccc(F)cc1-c1cccc(Cl)c1F)c1ccsc1I [drawing 234]
pest or weed control at 500 g/ha (Botrytis cinerea): 100%

O=C(Nc1ccccc1-c1ccc(Cl)c(Cl)c1)c1ccsc1Br [drawing 256]
pest or weed control at 500 g/ha (Botrytis cinerea): 100%

CC(C[Si](C)(C)C)c1ccccc1NC(=O)c1ccoc1I (stereo not shown) [Example 16]
logP [1]: 4.45

C=C(CC(C)C)c1ccccc1NC(=O)c1ccsc1I [Example 5]
logP [1]: 4.57

Cc1ccc(-c2ccccc2NC(=O)c2ccsc2I)cc1F [drawing 248]
pest or weed control at 500 g/ha (Botrytis cinerea): 100%

CO/N=C/c1ccc(-c2ccccc2NC(=O)c2ccsc2I)cc1F [drawing 251]
pest or weed control at 500 g/ha (Botrytis cinerea): 100%

O=C(Nc1ccccc1-c1ccc(Br)c(Cl)c1)c1ccsc1I [drawing 231]
pest or weed control at 500 g/ha (Botrytis cinerea): 100%

O=C(Nc1ccccc1-c1ccc(Br)c(F)c1)c1ccsc1I [Example 22]
logP [1]: 3.89

O=C(Nc1ccccc1-c1ccc(Cl)cc1)c1ccoc1I [drawing 236]
pest or weed control at 500 g/ha (Botrytis cinerea): 100%

CC(C)(C)CCc1sccc1NC(=O)c1ccsc1I [Example 42]
logP [1]: 4.44

O=C(Nc1ccccc1-c1cccc(Cl)c1F)c1ccsc1I [drawing 233]
pest or weed control at 500 g/ha (Botrytis cinerea): 100%

O=C(Nc1ccccc1-c1cccc(Cl)c1Cl)c1ccsc1I [drawing 232]
pest or weed control at 500 g/ha (Botrytis cinerea): 100%

CC(C)CC(C)c1ccccc1NC(=O)c1ccoc1I (stereo not shown) [Example 2, N-[2-(1,3-dimethylbutyl)phenyl]-2-iodo-3-furamide]
chromatographic logP [1]: 3.88

CC(CC(C)(C)C)c1ccccc1NC(=O)c1ccsc1I (stereo not shown) [Example 6]
logP [1]: 4.42

O=C(Nc1ccccc1-c1ccc(Cl)c(Cl)c1)c1ccsc1I [drawing 242]
pest or weed control at 500 g/ha (Botrytis cinerea): 100%

CON=Cc1ccc(-c2ccccc2NC(=O)c2ccsc2I)cc1F [Example 40]
logP [1]: 3.79

O=C(Nc1ccccc1-c1ccc(Cl)cc1)c1ccoc1I [Example 11]
logP [1]: 3.62

CC(C)(C)CCc1ccccc1NC(=O)c1ccsc1Br [Example 45]
logP [1]: 4.30

O=C(Nc1ccccc1-c1cccc(Cl)c1F)c1ccsc1I [Example 33]
logP [1]: 3.67

CC(C[Si](C)(C)C)c1cc(F)ccc1NC(=O)c1ccsc1I (stereo not shown) [Example 36]
logP [1]: 4.67

O=C(Nc1ccc(F)cc1-c1cccc(Cl)c1F)c1ccsc1I [Example 35]
logP [1]: 3.69

O=C(Nc1ccccc1-c1ccc(Br)c(F)c1)c1ccoc1I [Example 4]
logP [1]: 3.58

CC(CC(C)(C)C)c1ccccc1NC(=O)c1ccsc1I (stereo not shown) [drawing 225]
pest or weed control at 500 g/ha (Botrytis cinerea): 100%

CC(CC(C)(C)C)c1ccccc1NC(=O)c1ccoc1I (stereo not shown) [Example 7]
logP [1]: 4.16

C[Si](C)(C)CCc1ccccc1NC(=O)c1ccsc1I [Example 18]
logP [1]: 4.43

C=C(CC(C)(C)C)c1ccccc1NC(=O)c1ccoc1I [Example 15]
logP [1]: 4.49

O=C(Nc1ccccc1-c1ccc(Br)c(F)c1)c1ccsc1I [drawing 230]
pest or weed control at 500 g/ha (Botrytis cinerea): 100%

O=C(Nc1ccccc1-c1ccc(Cl)c(F)c1)c1ccoc1I [drawing 239]
pest or weed control at 500 g/ha (Botrytis cinerea): 100%

O=C(Nc1ccc(F)cc1-c1ccc(Cl)c(Cl)c1)c1ccsc1I [drawing 247]
pest or weed control at 500 g/ha (Botrytis cinerea): 100%

O=C(Nc1ccccc1-c1ccc(C(F)(F)F)cc1Cl)c1ccsc1I [Example 19]
logP [1]: 4.18

CC(C)(C)CCc1ccccc1NC(=O)c1ccsc1I [Example 20]
logP [1]: 4.17

CC(C)CC(C)c1sccc1NC(=O)c1ccsc1I (stereo not shown) [Example 43]
logP [1]: 4.22

CC(C)(C)CCc1cc(F)ccc1NC(=O)c1ccsc1I [Example 37]
logP [1]: 4.16

O=C(Nc1ccccc1-c1ccc(Br)cc1)c1ccoc1I [Example 3]
logP [1]: 3.72

CC(CC(C)(C)C)c1ccccc1NC(=O)c1ccoc1I (stereo not shown) [drawing 224]
pest or weed control at 500 g/ha (Botrytis cinerea): 100%

CC(C)(C)CCc1cc(F)ccc1NC(=O)c1ccsc1I [drawing 235]
pest or weed control at 500 g/ha (Botrytis cinerea): 100%

O=C(Nc1ccccc1-c1ccc(Cl)c(F)c1)c1ccsc1I [Example 9]
logP [1]: 3.82

C[Si](C)(C)CCc1sccc1NC(=O)c1ccsc1I [drawing 259]
pest or weed control at 500 g/ha (Botrytis cinerea): 100%

O=C(Nc1ccccc1-c1cccc(Cl)c1Cl)c1ccsc1I [Example 23]
logP [1]: 4.01

O=C(Nc1ccccc1-c1ccc(Cl)c(F)c1)c1ccsc1Br [drawing 257]
pest or weed control at 500 g/ha (Botrytis cinerea): 100%

O=C(Nc1ccccc1-c1ccc(C(F)(F)F)cc1)c1ccsc1I [Example 26]
logP [1]: 3.89

CC(C)CC(C)c1ccccc1NC(=O)c1ccsc1Br (stereo not shown) [Example 27]
logP [1]: 4.24

CC(C)CC(C)c1ccccc1NC(=O)c1ccsc1Br (stereo not shown) [drawing 253]
pest or weed control at 500 g/ha (Botrytis cinerea): 100%

CC(C)CC(C)c1ccccc1NC(=O)c1ccoc1I (stereo not shown) [drawing 223]
pest or weed control at 500 g/ha (Botrytis cinerea): 99%
